Values belong to the molecule of their own block, whether it stands above or below them.
Key:
[1] = test system: HEK293T soluble proteomes; assay: LC-MS chemical proteomics of probe-modified sites in cell proteomes; type: binding, human; conditions: for unique-modified tyrosine sites among 1,2,4-SuTEx probes: FIG. 4D; for tyrosine specificity, Y/K ratio of modified sites: LC-MS chemical proteomics
Description: Proteomes were diluted to 2.3 mg/mL in PBS and sample aliquots (432 μL) were treated with sulfonyl-triazole or -fluoride probes at the indicated concentrations (5 μL, 100× stock in DMSO), mixed gently and incubated for 1 h at room temperature. Probe-modified proteomes were subjected to CuAAC conjugation to desthiobiotin-PEG3-azide (10 μL of 10 mM stock in DMSO; final concentration of 200 μM) using TCEP (10 μL of fresh 50 mM stock in water; 1 mM final concentration), TBTA ligand (33 μL of a 1.7 mM 4:1 t-butanol/DMSO stock, 100 μM final concentration), and CuSO4 (10 μL of 50 mM stock, 1 mM final concentration). Samples were mixed by vortexing and then incubated for 1 h at room temperature. Excess reagents were removed by chloroform-methanol extraction as previously described^51. Protein pellets were re-suspended in 500 μL of 6M urea/25 mM ammonium bicarbonate followed by DTT reduction and IAA alkylation as previously described^5. Excess reagents were removed by chloroform/methanol extraction as described above, and the protein pellet was re-suspended in 500 μL of 25 mM ammonium bicarbonate and then digested to peptides using trypsin/Lys-C (7.5 μg in 15 μL of ammonium bicarbonate, sequencing grade from Promega, Madison, Wisconsin, United States of America) was added to the mixture and incubated for 3 hrs at 37° C. Probe-modified peptides were enriched by avidin affinity chromatography, eluted, and prepared for LC-MS analysis as previously described^51.
A top 10 data-dependent acquisition MS method was used.
Sulfonyl-probe modifications of tyrosine, lysine, and other amino acids were included as a variable (common) modification of +635.27374 Da. […] A Byonic score of 300 was applied for a more inclusive initial evaluation of the search results and thereby consider more possible probe-modified sites. MS1 and MS2 spectra corresponding to the highest-scoring tyrosine- and lysine (internal or non-C terminal)-modified sequences (˜50-100 peptides) were manually verified. […] Distinct peptides containing probe-modified amino acid residues (termed sites) were determined by identifying all unique razor protein and site combinations across all of the proteomes tested.
To compare amino acid residues modified by sulfonyl probes, protein and peptide identifications were accomplished as described above with variable (common) modification of +635.27374 Da on the following amino acid residues: cysteine, aspartic acid, glutamic acid, histidine, lysine, methionine, asparagine, glutamine, arginine, serine, threonine, tryptophan, and tyrosine. For these amino acid comparisons, carbamidomethylation (+57.021464 Da) of cysteines was searched as a variable/common modification to allow for the potential of probe modification on cysteines. Comparisons of probe-modified sites across all probes and cell lines tested were performed using the R package ggplot2 (online at tidyverse.org). Venn diagrams for comparisons were generated using the VennDiagram R package^52.
Proteomes were digested with trypsin protease and desthiobiotin-modified peptides enriched by avidin affinity chromatography, released, and analyzed by high-resolution liquid chromatography-mass spectrometry (LC-MS). Probe-modified peptide-spectrum matches (PSMs) that met a quality control confidence criteria of ≥300 Byonic score^31 and ≤5 ppm mass accuracy were selected for further manual evaluation.

[2] = HPLC assay for solution reactivity of sulfonyl triazole fragments with p-cresol; type: physicochemical; conditions: for solution reactivity with p-cresol: HPLC assay, TMG base; for time to completion of reaction with p-cresol: TMG 1.1 equivalents, on ice
Description: HPLC Assay for Profiling Solution Reactivity and Stability of Sulfonyl Triazole Fragments
The following reagents were prepared and stored on ice prior to use. 0.1 M solution of caffeine in acetonitrile, 1.0 M solution of n-butylamine, p-cresol, tetramethylguanidine […], 1 M HOAc in ACN and 10 mM solution of SuTEx fragment in DMF-ACN mixture (10:90, v/v). 500 μL of fragment solution was transferred to a dram vial on ice. To the mixture, 5.5 μL of TMG and 5.5 μL of p-cresol or n-butylamine was added and solutions were stirred on ice for 6 h. To monitor reactivity, 50 μL aliquots were removed at indicated time points and quenched with 10 μL of a 1:1 mixture of caffeine and HOAc. Samples were injected (1 μL) and analyzed by reverse-phase HPLC on a Shimadzu 1100 Series spectrometer (Shimadzu, Kyoto, Japan) with UV detection at 254 nm. Reaction progress was evaluated by monitoring consumption of starting material (SuTEx fragment) normalized to caffeine standard. Chromatographic separation was performed using a Phenomenex Kinetex C18 column (2.6 μm, 50×4.6 mm) (Phenomenex, Torrance, California, United States of America). Mobile phases A and B were composed of H2O+0.1% HOAc and ACN+0.1% HOAc, respectively. Samples were analyzed using the following analytical conditions: using a flow rate of 0.8 ml min^−1, the gradient was as follows: 0-0.5 min, 15% B; 0.5-6.5 min 85% B; 6.5-7 min 100% B: 7-8.5 min 100% B; 8.5-9 min 15% B; 9-9.8 min 15% B.

human DPP3 (hDPP3) = target: T1, human DPP3 (hDPP3) (Homo sapiens, UniProt Q9NY33); assay: Gel-based competitive chemical proteomic screen with HHS-482, recombinant hDPP3-HEK293T soluble proteomes; type: binding; conditions: 50 μM fragment, 37° C., 30 min
T1 construct: FLAG (C); host or cells: HEK293T, transient transfection; soluble proteome used unpurified
T1 sequence (Q9NY33 1-737): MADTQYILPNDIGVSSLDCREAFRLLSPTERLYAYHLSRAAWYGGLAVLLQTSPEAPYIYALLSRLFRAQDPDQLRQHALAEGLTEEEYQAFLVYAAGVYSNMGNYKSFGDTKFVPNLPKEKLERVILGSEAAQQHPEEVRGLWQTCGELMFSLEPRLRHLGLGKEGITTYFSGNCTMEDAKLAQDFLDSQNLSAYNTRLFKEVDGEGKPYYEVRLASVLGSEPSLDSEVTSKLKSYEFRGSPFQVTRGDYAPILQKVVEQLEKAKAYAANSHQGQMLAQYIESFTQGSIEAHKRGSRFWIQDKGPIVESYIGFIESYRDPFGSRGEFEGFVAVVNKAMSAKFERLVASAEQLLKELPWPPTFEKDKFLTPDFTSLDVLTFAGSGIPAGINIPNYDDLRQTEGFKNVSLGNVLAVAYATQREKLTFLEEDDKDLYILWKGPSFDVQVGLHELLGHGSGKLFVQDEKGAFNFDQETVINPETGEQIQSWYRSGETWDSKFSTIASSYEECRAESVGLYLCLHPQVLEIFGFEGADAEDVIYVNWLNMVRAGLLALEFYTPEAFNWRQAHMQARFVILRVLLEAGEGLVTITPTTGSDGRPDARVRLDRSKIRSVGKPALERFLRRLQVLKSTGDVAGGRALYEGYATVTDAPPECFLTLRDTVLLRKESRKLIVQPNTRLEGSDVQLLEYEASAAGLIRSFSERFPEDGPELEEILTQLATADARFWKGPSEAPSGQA
Description: Gel-Based Chemical Proteomic Assay
Cell pellets were lysed in PBS and fractionated (100,000×g, 45 min, 4° C.) to generate soluble and membrane fractions. Protein concentrations were determined using Bio-Rad DC protein assay (Bio-Rad Laboratories, Inc., Hercules, California, United States of America), and adjusted to 1 mgml^−1 in PBS. Proteome samples (49 μl aliquots) were treated with DMSO vehicle or indicated concentration of SuTEx fragment (1 μL, 50× stock in DMSO) for 30 min at 37° C. Samples were then treated with HHS-482 probe (1 μL, 2.5 mM stock in DMSO) for 30 min at 37° C. Probe labeled samples were conjugated to rhodamine-azide (1 μL, 1.25 mM stock; final concentration of 25 μM) by copper-catalyzed azide-alkyne cycloadditions (CuAAC) for 1 h at room temperature followed by SDS-PAGE and in-gel fluorescence scanning as previously described^57.

DM93 soluble proteomes = assay: Proteome-wide competitive chemical proteomics of SuTEx fragments vs HHS-482; type: binding, human; conditions: fragment 50 μM, 30 min, 37° C.
Description: Heavy and light proteomes (432 μl of each) were diluted to 2.3 mg ml^−1 in PBS and sample aliquots (432 μl) were treated with SuTEx fragment at the indicated concentrations (5 μl, 100× stock in DMSO), mixed gently and incubated for 30 min at 37° C. Samples were then treated with HHS-482 (5 μL, 5 mM stock in DMSO) for 30 min at 37° C. Probe-modified proteomes were conjugated to desthiobiotin-PEG3-azide followed by enrichment of probe-modified peptides for nano-electrospray ionization-LC-MS/MS analyses as previously described^57.
The chemical proteomic method for functional tyrosine profiling^72 was tailored to investigate AG/LG effects on SuTEx fragment reactivity in complex proteomes. In brief, isotopically light and heavy soluble proteomes from DM93 melanoma cells cultured by stable isotopic labeling by amino acids in cell culture (SILAC^80) media were used for quantitative liquid chromatography-mass spectrometry (LC-MS) studies. Light and heavy DM93 proteomes were treated with dimethyl sulfoxide (DMSO) vehicle or SuTEx fragment (50 μM, 30 min, 37° C.), respectively, followed by labeling with the tyrosine-reactive probe HHS-482 described hereinabove (50 μM, 30 min, 37° C.) and copper-catalyzed azide-alkyne cycloaddition (CuAAC) conjugation of a desthiobiotin-azide enrichment tag. Proteomes were digested with trypsin protease, HHS-482-modified peptides enriched by avidin chromatography and analyzed by high-resolution LC-MS/MS and bioinformatics as described hereinabove.
To evaluate substituent effects on proteome activity, reactivity profiles of each respective SuTEx fragment were compared across >1500 total distinct HHS-482-modified tyrosine sites from >650 detected proteins. Fragments were screened across independent biological replicates (n=2-3) and high-quality tyrosine site annotations were identified by detection in at least a single biological replicate from each fragment dataset, probe-specific enrichment (HHS-482 probe/DMSO SILAC ratio (SR)>5), and quality control confidence criteria of ≥300 Byonic score^31, […] protein false discovery rate (FDR), and ≤5 ppm mass accuracy in order to minimize the potential for false positives^72. SILAC ratios (SR) from competitive studies (Light-DMSO/Heavy-fragment) were used to identify fragment-competed tyrosine residues as sites showing >75% reduction in enrichment by HHS-482 compared with DMSO vehicle control (i.e. liganded tyrosines, SR>4). In total, 305 liganded tyrosines on 213 distinct proteins were identified, corresponding to ˜30% and ˜44% of total quantified tyrosines and proteins, respectively. […]

SMILES: C#CCNC(=O)c1ccc(S(=O)(=O)n2cnc(-c3ccccc3)n2)cc1 [HHS-481, 4-((3-Phenyl-1H-1,2,4-triazol-1-yl)sulfonyl)-N-(prop-2-yn-1-yl)benzamide]
total number of probe-modified sites (Y and K combined) ([1]; FIG. 4A): ~4,000 sites | unique-modified tyrosine sites among 1,2,4-SuTEx probes [1]: 445 sites | tyrosine specificity, Y/K ratio of modified sites ([1]; FIG. 4A): 3.5

SMILES: C#CCNC(=O)c1ccc(S(=O)(=O)n2cnc(-c3ccc(OC)cc3)n2)cc1 [HHS-482, 4-((3-(4-Methoxyphenyl)-1H-1,2,4-triazol-1-yl)sulfonyl)-N-(prop-2-yn-1-yl)benzamide]
total number of probe-modified sites (Y and K combined) ([1]; FIG. 4A): ~3,000 sites | unique-modified tyrosine sites among 1,2,4-SuTEx probes [1]: 112 sites | tyrosine specificity, Y/K ratio of modified sites ([1]; FIG. 4A): ~5 | fraction of probe-modified residues/peptides assigned to tyrosines ([1]; high confidence sites): ~75%

SMILES: C#CCNC(=O)c1ccc(S(=O)(=O)n2cnc(-c3ccc(F)cc3)n2)cc1 [HHS-483, 4-((3-(4-Fluorophenyl)-1H-1,2,4-triazol-1-yl)sulfonyl)-N-(prop-2-yn-1-yl)benzamide]
proteome reactivity and tyrosine specificity compared with HHS-481 ([1]; FIG. 4A): comparable reactivity and slightly lowered tyrosine specificity | unique-modified tyrosine sites among 1,2,4-SuTEx probes [1]: 433 sites

SMILES: COc1ccc(-c2ncn(S(=O)(=O)c3ccc(F)cc3)n2)cc1 [JWB135, 1-((4-Fluorophenyl)sulfonyl)-3-(4-methoxyphenyl)-1H-1,2,4-triazole]
solution reactivity with p-cresol [2]: attenuated reactivity

SMILES: COc1ccc(-c2ncn(S(=O)(=O)c3ccc(OC)cc3)n2)cc1 [JWB136, 3-(4-Methoxyphenyl)-1-((4-methoxyphenyl)sulfonyl)-1H-1,2,4-triazole]
solution reactivity with p-cresol [2]: incomplete reaction

SMILES: COc1ccc(-c2ncn(S(=O)(=O)c3ccc(C#N)cc3)n2)cc1 [JWB137, 4-((3-(4-Methoxyphenyl)-1H-1,2,4-triazol-1-yl)sulfonyl)benzonitrile]
time to completion of reaction with p-cresol [2]: ~5 min

SMILES: COc1ccc(-c2ncn(S(=O)(=O)c3cccnc3)n2)cc1 [JWB141, 3-((3-(4-Methoxyphenyl)-1H-1,2,4-triazol-1-yl)sulfonyl)pyridine]
time to completion of reaction with p-cresol [2]: ~30 min

competition against recombinant DPP3 (human DPP3 (hDPP3); also substantial proteome cross-reactivity): potent competition
SMILES: O=S(=O)(c1ccc(F)cc1)n1cnc(-c2ccc(C(F)(F)F)cc2)n1 [JWB150, 1-((4-Fluorophenyl)sulfonyl)-3-(4-(trifluoromethyl)phenyl)-1H-1,2,4-triazole]
solution reactivity with p-cresol [2]: comparable reaction | liganded tyrosine frequency (SR>4) (DM93 soluble proteomes): > 25%

blockade of DPP3 probe (HHS-482) labeling (human DPP3 (hDPP3)): ~50%
SMILES: O=S(=O)(c1ccc(-c2ccccc2)cc1)n1cnc(-c2ccncc2)n1 [JWB202, 4-(1-([1,1′-Biphenyl]-4-ylsulfonyl)-1H-1,2,4-triazol-3-yl)pyridine]
